Consider three molecules from patent US10463664B2, “Inhibitors of HSV nucleotidyl transferases and uses therefor” (Saint Louis University, priority 2013, dated 2019).

The test system of data set [1] is HSV-2. The data set is described as follows: Time-of-addition experiment, HSV-2 in Vero cells. The format is cell-based, herpes simplex virus 2. The note with it: 10 μM. The procedure: The inventors next varied the time post-infection that the inhibitors were added to begin defining the stage(s) of viral replication targeted by the inhibitors. […] The cells were incubated until 24 hours post-infection and then infectious viral titers were determined by plaque assay and viral DNA production was determined by quantitative PCR (FIG. 5).

In data set [2] the test system is HSV-1. The data set is described as follows: Pre-incubation of viral inoculum with compound (virus infectivity). The format is cell-based, herpes simplex virus 1. The procedure:
Tests were carried out to determine if the early event inhibited by compound #46 was a pre- or post-entry event. A high titer HSV-1 stock was pre-incubated with compound #46 at 50 μM or was incubated with an equivalent amount of DMSO-containing medium for 1 hour at 37° C. Then the viral stocks with compound or DMSO were diluted such that Vero cells were infected at a moi of 0.1 as usual. […] A standard inhibition assay using compound #46 at 50 μM was conducted in parallel as a positive control, and viral titers were determined by plaque assay at 24 hours post-infection. The standard conditions of infection at 50 μM caused a 5.5 log10 suppression of HSV-1 replication relative to the DMSO pre-treatment sample.

The target in data set [3] is T1, human RNaseH1 (Homo sapiens, UniProt O60930).
T1 construct: hexahistidine; made in house; host or cells: E. coli
T1 sequence (O60930 1-286): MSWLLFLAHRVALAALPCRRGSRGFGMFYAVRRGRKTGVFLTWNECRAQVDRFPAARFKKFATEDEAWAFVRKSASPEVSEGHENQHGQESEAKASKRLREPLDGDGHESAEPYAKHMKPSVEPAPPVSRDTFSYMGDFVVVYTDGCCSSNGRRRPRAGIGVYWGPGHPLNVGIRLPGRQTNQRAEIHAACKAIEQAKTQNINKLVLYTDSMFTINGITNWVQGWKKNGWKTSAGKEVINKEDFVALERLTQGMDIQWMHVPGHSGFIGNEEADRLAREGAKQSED
The following applies: Hu et al., 2013; cited from earlier work.

Data set [4] in a line: Neutral red cytotoxicity assay in HFFs (10 day, with plaque reduction assay). Type of data set: cell-based, human. The following applies: human, uninfected primary human foreskin fibroblasts (HFFs), 10 day assay. The procedure: HCMV plaque reduction EC50 and toxicity assays. Low passage primary HFFs were infected with HCMV strain AD169 in the presence of serial dilutions of the compounds from 0.032 to 100 μM. Ten days later the monolayers were stained with 1% neutral red solution in PBS. After rinsing, plaques were counted using a stereomicroscope and the EC50 was interpolated from the data. Cytotoxicity was measured using a plate-based assay in which compounds were added to HFFs at 0.032 to 100 μM. At the end of the incubation period, plates were stained for 1 h with a neutral red solution in PBS. The stain was then removed, the plates rinsed in PBS and dried, and dye internalized by viable cells was determined at OD550. CC50 values were interpolated from the data.
Compounds #41, 46, 49, 55, 56, and 59 and the FDA-approved, anti-HCMV drug ganciclovir were subsequently evaluated with plaque reduction and toxicity assays in HFFs. HFFs were infected with HCMV in the presence of serial dilutions of the compounds. After 10 days the cultures were stained with neutral red and plaques were counted. Compound cytotoxicity for uninfected cells was determined in the same manner except that neutral red uptake by viable cells was measured by optical density. […] The TI values for the five NTS inhibitors of HCMV ranged from 5 for compound #46 to 17 for #55 and 59. Therefore, NTS inhibitors can suppress HCMV replication in addition to inhibiting the HSVs.
In general terms: Plaque reduction counts the foci of infection that form in a cell layer.

Data set [5] can be described thus: Neutral red cytotoxicity assay in uninfected HFFs (14 day, with CPE assay). The format is cell-based, human. The note with it: human, uninfected human foreskin fibroblasts (HFFs). The procedure:
Anti-HCMV CPE inhibition and cytotoxicity assays. HFFs were infected with HCMV strain AD169 in the presence of serial dilutions of the compounds from 0.0192 to 60 μM. Fourteen days later the monolayers were stained with crystal violet, and retained cell density was quantified using a multiplate autoreader (BioTek). Cytotoxicity was measured the same way, except that the cells were uninfected and neutral red internalization by viable cells was measured.
Antiviral efficacy against HCMV. The ability of select HSV inhibitors to inhibit replication of another major human herpesvirus pathogen, human cytomegalovirus (HCMV) (65) was tested. This was based on the inhibitors strong suppression of HSV-1 and HSV-2 and the prediction that other members of the herpesvirus family would be sensitive to NTS inhibitors due to their shared DNA replication mechanism. Compounds #41, 46, 49, 55, 56, and 59 and the FDA-approved anti-HCMV drug ganciclovir were evaluated with crystal violet CPE and neutral red toxicity assays in HFFs. HFFs were infected with HCMV in the presence of serial dilutions of the compounds that were most inhibitory for HSVs. After 14 days the monolayers were stained and cell density was determined by OD reading. Compound cytotoxicity for uninfected cells was determined in the same manner except that neutral red uptake by viable cells was measured. […] The TI values for the four NTS inhibitors of HCMV ranged from 4 for compound #41 to 38 for #56. Therefore, NTS inhibitors can suppress HCMV replication in addition to inhibiting the HSVs.

Regarding `Nc1nc2c(ncn2COCCO)c(=O)[nH]1` [ACV, Acyclovir, reference compound], in data set [1], the “Delay of addition with no effect on inhibition of DNA replication or viral accumulation” value is recorded as no more than 5 hours post-infection and the “Time of addition at which compound becomes essentially ineffective” value came to 12 hours post-infection.

Regarding `CC(C)c1ccc(O)c(=O)c(O)c1` [Compound 46, Beta-thujaplicinol], the “Suppression of HSV-1 replication, standard conditions of infection” value in data set [2] (50 μM throughout, relative to DMSO pre-treatment sample) was found to be 5.5 log10. In addition, the “Effect of pre-incubation on virions / virus entry (in words)” value in data set [2] (pre-incubation 50 μM, 1 hour, 37° C.) is listed as “not directly toxic to virions”. Also, the “Effect on RNase H1 (in words)” value in data set [3] is “no effect”.

As to `Cc1cc(C2CCCCC2)n(O)c(=O)c1` [Compound 41, Ciclopirox, reference compound], the CC50 (commonly the concentration that lowers cell viability or growth by half) at 10 days in data set [4] came out at 2.9 µM. Besides, the cytotoxic concentration (CC50) at 14 days in data set [5] turned out to be 8.9 µM.
